Assay results from publication PMC2819846 (Mutation research, 2008).

Experiments:
Type in all cases: cell-based
Salmonella TA98 = test: Salmonella plate-incorporation mutagenicity assay, strain TA98, with S9 mix; details: for Mutagenic potency, Revertants/µg ± S.E., TA98 / Mutagenicity call TA98: plate-incorporation, +S9
Salmonella TA100 = test: Salmonella plate-incorporation mutagenicity assay, strain TA100; details: for Mutagenic potency, Revertants/µg ± S.E., TA100 / Mutagenicity call TA100: plate-incorporation, +S9
Salmonella TA104 = test: Salmonella plate-incorporation mutagenicity assay, strain TA104, with S9 mix; details: for Mutagenic potency, Revertants/µg ± S.E., TA104: plate-incorporation, +S9
[1] = TA98 +S9, Test 1, 2 µg/plate, zero-dose 33/40/39
[2] = TA98 +S9, Test 1, 5 µg/plate, zero-dose 33/40/39
[3] = TA98 +S9, Test 1, 10 µg/plate, zero-dose 33/40/39
[4] = TA98 +S9, Test 1, 20 µg/plate, zero-dose 33/40/39
[5] = TA98 +S9, Test 1, 40 µg/plate, zero-dose 33/40/39
[6] = TA98 +S9, Test 1, 80 µg/plate, zero-dose 33/40/39
[7] = TA100 +S9, Test 1, 2 µg/plate, zero-dose 99/110/110
[8] = TA100 +S9, Test 1, 5 µg/plate, zero-dose 99/110/110
[9] = TA100 +S9, Test 1, 10 µg/plate, zero-dose 99/110/110
[10] = TA100 +S9, Test 1, 20 µg/plate, zero-dose 99/110/110
[11] = TA100 +S9, Test 1, 40 µg/plate, zero-dose 99/110/110
[12] = TA100 +S9, Test 1, 80 µg/plate, zero-dose 99/110/110
[13] = TA100 +S9, Test 2, 2 µg/plate, zero-dose 84/78/80
[14] = TA100 +S9, Test 2, 5 µg/plate, zero-dose 84/78/80
[15] = TA100 +S9, Test 2, 10 µg/plate, zero-dose 84/78/80
[16] = TA100 +S9, Test 3, 2 µg/plate, zero-dose 127/118/125
[17] = TA100 +S9, Test 3, 5 µg/plate, zero-dose 127/118/125
[18] = TA100 +S9, Test 3, 10 µg/plate, zero-dose 127/118/125
[19] = TA104 +S9, Test 2, 2 µg/plate, zero-dose 276/260/270
[20] = TA104 +S9, Test 2, 5 µg/plate, zero-dose 276/260/270
[21] = TA104 +S9, Test 2, 10 µg/plate, zero-dose 276/260/270
[22] = TA104 +S9, Test 3, 2 µg/plate, zero-dose 402/395/336
[23] = TA104 +S9, Test 3, 5 µg/plate, zero-dose 402/395/336
[24] = TA104 +S9, Test 3, 10 µg/plate, zero-dose 402/395/336
[25] = TA104 +S9, Test 2, 1 µg/plate, zero-dose 276/260/270
[26] = TA104 +S9, Test 3, 1 µg/plate, zero-dose 402/395/336
[27] = TA104 +S9, Test 4, 1 µg/plate, zero-dose 482/455/462

O[C@@H]1c2ccccc2-c2c(ccc3sccc23)[C@H]1O (racemic) [P[3,4-b]T 6,7-diol, (± )-trans-6,7-Dihydrophenanthro[3,4-b]thiophene 6,7-diol]
Rev/plate (Salmonella TA98; [1]): 45 rev/plate
Rev/plate (Salmonella TA98; [2]): 47 rev/plate
Rev/plate (Salmonella TA98; [3]): 61 rev/plate
Rev/plate (Salmonella TA98; [4]): 62 rev/plate
Rev/plate (Salmonella TA98; [5]): 107 rev/plate
Rev/plate (Salmonella TA98; [6]): 130 rev/plate
Rev/plate (Salmonella TA98; TA98 +S9, Test 2, 20 µg/plate, zero-dose 43/41/30): 64/63
Rev/plate (Salmonella TA98; TA98 +S9, Test 2, 40 µg/plate, zero-dose 43/41/30): 72/84
Rev/plate (Salmonella TA98; TA98 +S9, Test 2, 80 µg/plate, zero-dose 43/41/30): 146/141
Rev/plate (Salmonella TA98; TA98 +S9, Test 2, 150 µg/plate, zero-dose 43/41/30): 207/190
Rev/plate (Salmonella TA98; TA98 +S9, Test 3, 20 µg/plate, zero-dose 49/50/50): 90/111
Rev/plate (Salmonella TA98; TA98 +S9, Test 3, 40 µg/plate, zero-dose 49/50/50): 132/132
Rev/plate (Salmonella TA98; TA98 +S9, Test 3, 80 µg/plate, zero-dose 49/50/50): 181/199
Rev/plate (Salmonella TA98; TA98 +S9, Test 3, 150 µg/plate, zero-dose 49/50/50): 241/222
Mutagenic potency, Revertants/µg ± S.E., TA98 (Salmonella TA98): 1.4 ± 0.2 rev/µg
Mutagenicity call TA98 (Salmonella TA98): (+) (Called mutagenic (+) based on showing reproducible, dose-related increases in rev/plate that reached or exceeded 2-fold relative to zero-dose controls)
Rev/plate (Salmonella TA100; [7]): 280 rev/plate
Rev/plate (Salmonella TA100; [8]): 461 rev/plate
Rev/plate (Salmonella TA100; [9]): 580 rev/plate
Rev/plate (Salmonella TA100; [10]): 1052 rev/plate
Rev/plate (Salmonella TA100; [11]): 1172 rev/plate
Rev/plate (Salmonella TA100; [12]): 1286 rev/plate
Rev/plate (Salmonella TA100; [13]): 224/217
Rev/plate (Salmonella TA100; [14]): 369/364
Rev/plate (Salmonella TA100; [15]): 746/565
Rev/plate (Salmonella TA100; TA100 +S9, Test 2, 20 µg/plate, zero-dose 84/78/80): 593/607
Rev/plate (Salmonella TA100; [16]): 305/298
Rev/plate (Salmonella TA100; [17]): 573/564
Rev/plate (Salmonella TA100; [18]): 862/714
Rev/plate (Salmonella TA100; TA100 +S9, Test 3, 20 µg/plate, zero-dose 127/118/125): 1142/1113
Mutagenic potency, Revertants/µg ± S.E., TA100 (Salmonella TA100): 59.8 ± 6.1 rev/µg
Mutagenicity call TA100 (Salmonella TA100): (+) (Called mutagenic (+) based on showing reproducible, dose-related increases in rev/plate that reached or exceeded 2-fold relative to zero-dose controls)
Rev/plate (Salmonella TA104; [19]): 365/338
Rev/plate (Salmonella TA104; [20]): 407/431
Rev/plate (Salmonella TA104; [21]): 475/484
Rev/plate (Salmonella TA104; TA104 +S9, Test 2, 20 µg/plate, zero-dose 276/260/270): 538/576
Rev/plate (Salmonella TA104; [22]): 475/419
Rev/plate (Salmonella TA104; [23]): 498/541
Rev/plate (Salmonella TA104; [24]): 532/550
Rev/plate (Salmonella TA104; TA104 +S9, Test 3, 20 µg/plate, zero-dose 402/395/336): 533/627
Mutagenic potency, Revertants/µg ± S.E., TA104 (Salmonella TA104): 24.9 ± 8.3 rev/µg

c1ccc2c(c1)ccc1ccc3ccsc3c12 [P[4,3-b]T, Phenanthro[4,3-b]thiophene]
Rev/plate (Salmonella TA98; [1]): 61 rev/plate
Rev/plate (Salmonella TA98; [2]): 137 rev/plate
Rev/plate (Salmonella TA98; [3]): 141 rev/plate
Rev/plate (Salmonella TA98; [4]): 146 rev/plate
Rev/plate (Salmonella TA98; [5]): 158 rev/plate
Rev/plate (Salmonella TA98; [6]): 105 rev/plate
Rev/plate (Salmonella TA98; TA98 +S9, Test 2, 1 µg/plate, zero-dose 43/41/30): 39/49
Rev/plate (Salmonella TA98; TA98 +S9, Test 2, 2 µg/plate, zero-dose 43/41/30): 41/33
Rev/plate (Salmonella TA98; TA98 +S9, Test 2, 5 µg/plate, zero-dose 43/41/30): 97/77
Rev/plate (Salmonella TA98; TA98 +S9, Test 2, 10 µg/plate, zero-dose 43/41/30): 110/79
Rev/plate (Salmonella TA98; TA98 +S9, Test 3, 1 µg/plate, zero-dose 49/50/50): 93/74
Rev/plate (Salmonella TA98; TA98 +S9, Test 3, 2 µg/plate, zero-dose 49/50/50): 98/77
Rev/plate (Salmonella TA98; TA98 +S9, Test 3, 5 µg/plate, zero-dose 49/50/50): 162/166
Rev/plate (Salmonella TA98; TA98 +S9, Test 3, 10 µg/plate, zero-dose 49/50/50): 194/213
Mutagenic potency, Revertants/µg ± S.E., TA98 (Salmonella TA98): 13.7 ± 3.3 rev/µg
Mutagenicity call TA98 (Salmonella TA98): (+) (Called mutagenic (+) based on showing reproducible, dose-related increases in rev/plate that reached or exceeded 2-fold relative to zero-dose controls)
Rev/plate (Salmonella TA100; [7]): 172 rev/plate
Rev/plate (Salmonella TA100; [8]): 194 rev/plate
Rev/plate (Salmonella TA100; [9]): 190 rev/plate
Rev/plate (Salmonella TA100; [10]): 125 rev/plate
Rev/plate (Salmonella TA100; [11]): 188 rev/plate
Rev/plate (Salmonella TA100; [12]): 164 rev/plate
Rev/plate (Salmonella TA100; TA100 +S9, Test 2, 1 µg/plate, zero-dose 84/78/80): 80/84
Rev/plate (Salmonella TA100; [13]): 92/89
Rev/plate (Salmonella TA100; [14]): 116/108
Rev/plate (Salmonella TA100; [15]): 119/98
Rev/plate (Salmonella TA100; TA100 +S9, Test 3, 1 µg/plate, zero-dose 127/118/125): 142/160
Rev/plate (Salmonella TA100; [16]): 185/164
Rev/plate (Salmonella TA100; [17]): 218/248
Rev/plate (Salmonella TA100; [18]): 274/291
Rev/plate (Salmonella TA100; TA100 +S9, Test 4, 1 µg/plate, zero-dose 112/140/115): 160/156
Rev/plate (Salmonella TA100; TA100 +S9, Test 4, 2 µg/plate, zero-dose 112/140/115): 164/156
Rev/plate (Salmonella TA100; TA100 +S9, Test 4, 5 µg/plate, zero-dose 112/140/115): 218/198
Rev/plate (Salmonella TA100; TA100 +S9, Test 4, 10 µg/plate, zero-dose 112/140/115): 275/234
Mutagenic potency, Revertants/µg ± S.E., TA100 (Salmonella TA100): 12.8 ± 3.9 rev/µg
Mutagenicity call TA100 (Salmonella TA100): (+) (Called mutagenic (+) based on showing reproducible, dose-related increases in rev/plate that reached or exceeded 2-fold relative to zero-dose controls)
Rev/plate (Salmonella TA104; [25]): 392/313
Rev/plate (Salmonella TA104; [19]): 414/432
Rev/plate (Salmonella TA104; [20]): 419/440
Rev/plate (Salmonella TA104; [21]): 437/473
Rev/plate (Salmonella TA104; [26]): 457/397
Rev/plate (Salmonella TA104; [22]): 468/515
Rev/plate (Salmonella TA104; [23]): 490/505
Rev/plate (Salmonella TA104; [24]): 489/509
Rev/plate (Salmonella TA104; [27]): 517/524
Rev/plate (Salmonella TA104; TA104 +S9, Test 4, 2 µg/plate, zero-dose 482/455/462): 532/540
Rev/plate (Salmonella TA104; TA104 +S9, Test 4, 5 µg/plate, zero-dose 482/455/462): 540/497
Rev/plate (Salmonella TA104; TA104 +S9, Test 4, 10 µg/plate, zero-dose 482/455/462): 520/592
Mutagenic potency, Revertants/µg ± S.E., TA104 (Salmonella TA104): 58.9 ± 7.9 rev/µg

Nc1ccc2cc3ccccc3cc2c1 [2-aminoanthracene, reference compound]
Rev/plate (Salmonella TA104; TA104 +S9, Test 1, 0.1 µg/plate, zero-dose 379/400/370): 469/478
Rev/plate (Salmonella TA104; TA104 +S9, Test 1, 0.25 µg/plate, zero-dose 379/400/370): 650/632
Rev/plate (Salmonella TA104; TA104 +S9, Test 1, 0.5 µg/plate, zero-dose 379/400/370): 849/818
Rev/plate (Salmonella TA104; TA104 +S9, Test 1, 1 µg/plate, zero-dose 379/400/370): 1004/998
Rev/plate (Salmonella TA104; TA104 +S9, Test 1, 2 µg/plate, zero-dose 379/400/370): 1335/1432
Rev/plate (Salmonella TA104; TA104 +S9, Test 2, 0.1 µg/plate, zero-dose 276/260/270): 366/337
Rev/plate (Salmonella TA104; TA104 +S9, Test 2, 0.25 µg/plate, zero-dose 276/260/270): 521/530
Rev/plate (Salmonella TA104; TA104 +S9, Test 2, 0.5 µg/plate, zero-dose 276/260/270): 764/666
Rev/plate (Salmonella TA104; [25]): 983/956
Rev/plate (Salmonella TA104; [19]): 1321/1392
Rev/plate (Salmonella TA104; TA104 +S9, Test 3, 0.1 µg/plate, zero-dose 402/395/336): 444/419
Rev/plate (Salmonella TA104; TA104 +S9, Test 3, 0.25 µg/plate, zero-dose 402/395/336): 570/588
Rev/plate (Salmonella TA104; TA104 +S9, Test 3, 0.5 µg/plate, zero-dose 402/395/336): 822/811
Rev/plate (Salmonella TA104; [26]): 1079/1097
Rev/plate (Salmonella TA104; [22]): 1434/1518
Rev/plate (Salmonella TA104; TA104 +S9, Test 4, 0.1 µg/plate, zero-dose 482/455/462): 573/564
Rev/plate (Salmonella TA104; TA104 +S9, Test 4, 0.25 µg/plate, zero-dose 482/455/462): 699/711
Rev/plate (Salmonella TA104; TA104 +S9, Test 4, 0.5 µg/plate, zero-dose 482/455/462): 864/989
Rev/plate (Salmonella TA104; [27]): 1185/1181
